The numbers were not newly measured in patent publication US20070092539A1 (priority 2003, published 2007), which cites them from elsewhere.

The test system of one data set is rates with arthritis. The note with it: experimental models on rates with arthritis, compared with other AINEs.

On to `Cc1cnc(NC(=O)C2=C(O)c3ccccc3S(=O)(=O)N2C)s1` [meloxicam, 4-hydroxy-2-methyl-N-(5-methyl-2-thiazolyl)-2H-1,2-benzotiazine-3-carboxamide-1,1-dioxide], for which the solubility in methanol result (methanol) is given as “slightly soluble in methanol”. Moreover, the solubility in water entry (water) is reported as “practically insoluble in water”. Also, in the data set on rates with arthritis, the “therapeutic margin (ulcerogenic vs anti-inflammatory doses)” value is reported as “superior therapeutic margin over the other AINEs”.
